Results as given in paper PMC7688211, “Multiple Transporters and Glycoside Hydrolases Are Involved in Arabinoxylan-Derived Oligosaccharide Utilization in Bifidobacterium pseudocatenulatum” (Applied and Environmental Microbiology, 2020).
Like-named read-outs stand apart in the source and are kept apart here.

Legend:
Test in all cases: SPR (Biacore T200), SBP immobilised on CM5
Conditions in all cases: 25°C, 20 mM phosphate/citrate pH 6.5, 150 mM NaCl, 0.005% Tween 20
BpAXBP2 = molecular target: T1, BpAXBP2; parameters: species or system Bifidobacterium pseudocatenulatum
T1 construct: gene BBPC_RS02280; predicted signal peptide removed, N-terminal His tag (pCold I), E. coli BL21; primers encode native start ASKDEN after IEGRH linker and end ALPTE; immobilised on CM5 chip

BpAXBP3 = molecular target: T2, BpAXBP3 (Bifidobacterium pseudocatenulatum, UniProt A0ABY6YA63); format: binding
T2 construct: gene msmE_1; predicted signal peptide removed, N-terminal His tag (pCold I), E. coli BL21; primers encode native start KDDKTITFW after IEGRH linker and end AASKG; immobilised on CM5 chip
T2 sequence (A0ABY6YA63 29-424): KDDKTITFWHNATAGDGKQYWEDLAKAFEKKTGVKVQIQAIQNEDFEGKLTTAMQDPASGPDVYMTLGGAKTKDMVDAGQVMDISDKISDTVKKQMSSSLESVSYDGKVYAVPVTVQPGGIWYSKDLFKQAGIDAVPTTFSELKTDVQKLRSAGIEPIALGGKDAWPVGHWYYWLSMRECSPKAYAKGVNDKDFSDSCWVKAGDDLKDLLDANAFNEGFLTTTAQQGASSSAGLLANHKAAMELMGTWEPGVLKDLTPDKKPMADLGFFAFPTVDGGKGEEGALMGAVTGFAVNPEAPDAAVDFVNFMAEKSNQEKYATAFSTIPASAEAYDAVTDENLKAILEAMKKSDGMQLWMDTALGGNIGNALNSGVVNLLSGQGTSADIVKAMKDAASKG

BpAXBP1 = molecular target: T3, BpAXBP1 (Bifidobacterium pseudocatenulatum, UniProt A0A087BW54); format: binding
T3 construct: predicted signal peptide removed, N-terminal His tag (pCold I), E. coli BL21; primers encode native start ACGGGTN after IEGRH linker and end KNLKVKK; immobilised on CM5 chip
T3 sequence (A0A087BW54 25-563): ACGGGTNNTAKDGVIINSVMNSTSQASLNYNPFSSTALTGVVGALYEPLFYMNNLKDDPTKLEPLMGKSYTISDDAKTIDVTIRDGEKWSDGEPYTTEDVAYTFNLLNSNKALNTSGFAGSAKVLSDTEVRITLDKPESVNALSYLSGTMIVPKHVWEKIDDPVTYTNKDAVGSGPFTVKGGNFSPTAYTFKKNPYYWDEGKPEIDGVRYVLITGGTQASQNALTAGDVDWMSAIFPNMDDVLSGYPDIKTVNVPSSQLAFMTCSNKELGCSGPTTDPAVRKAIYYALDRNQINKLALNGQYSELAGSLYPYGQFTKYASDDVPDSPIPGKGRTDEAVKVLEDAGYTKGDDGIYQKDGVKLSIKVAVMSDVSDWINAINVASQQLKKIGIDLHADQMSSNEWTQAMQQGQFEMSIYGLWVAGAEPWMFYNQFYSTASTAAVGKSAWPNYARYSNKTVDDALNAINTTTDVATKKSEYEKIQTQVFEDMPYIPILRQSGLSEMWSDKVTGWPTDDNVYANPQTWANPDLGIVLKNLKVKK

Compound	Kd (BpAXBP2) [µM]	Kd (BpAXBP3) [µM]	Kd (BpAXBP1; read-out: Kd) [µM]	Kd (BpAXBP1)
OC[C@@H]1O[C@@H](O[C@@H]2[C@@H](O)[C@H](O[C@@H]3COC(O)[C@H](O)[C@H]3O)OC[C@H]2O)[C@H](O)[C@H]1O (stereo partly drawn) [AXOS1, 3^2-α-L-arabinofuranosyl-xylobiose]	0.66	< 100		
OC[C@@H]1O[C@@H](O[C@@H]2[C@@H](O[C@@H]3O[C@@H](CO)[C@H](O)[C@H]3O)[C@H](O[C@@H]3CO[C@@H](O[C@@H]4COC(O)[C@H](O)[C@H]4O)[C@H](O)[C@H]3O)OC[C@H]2O)[C@H](O)[C@H]1O (stereo partly drawn) [AXOS2, 2^3,3^3-di-α-L-arabinofuranosyl-xylotriose]	0.69			
OC[C@@H]1O[C@@H](O[C@H]2[C@H](O[C@@H]3CO[C@@H](O[C@@H]4COC(O)[C@H](O)[C@H]4O)[C@H](O)[C@H]3O)OC[C@@H](O)[C@@H]2O)[C@H](O)[C@H]1O (stereo partly drawn) [AXOS3, 2^3-α-L-arabinofuranosyl-xylotriose]	19.2	< 100		
OC[C@@H]1O[C@@H](O[C@@H]2[C@@H](O)[C@H](O[C@@H]3CO[C@@H](O[C@@H]4COC(O)[C@H](O)[C@H]4O)[C@H](O)[C@H]3O)OC[C@H]2O[C@@H]2OC[C@@H](O)[C@H](O)[C@H]2O)[C@H](O)[C@H]1O (stereo partly drawn) [AXOS4, 3^3-α-L-arabinofuranosyl-xylotetraose]	103	< 100	7.5	
OC1OC[C@@H](O[C@@H]2OC[C@@H](O)[C@H](O)[C@H]2O)[C@H](O)[C@H]1O (stereo partly drawn) [XOS2, xylobiose]		< 100		BpAXBP1 exhibited a high affinity for XOS and AXOS4
OC1OC[C@@H](O[C@@H]2OC[C@@H](O[C@@H]3OC[C@@H](O)[C@H](O)[C@H]3O)[C@H](O)[C@H]2O)[C@H](O)[C@H]1O (stereo partly drawn) [XOS3, xylotriose]		< 100	18.7	
OC1OC[C@@H](O[C@@H]2OC[C@@H](O[C@@H]3OC[C@@H](O[C@@H]4OC[C@@H](O)[C@H](O)[C@H]4O)[C@H](O)[C@H]3O)[C@H](O)[C@H]2O)[C@H](O)[C@H]1O (stereo partly drawn) [XOS4, xylotetraose]		< 100	0.63	
OC1OC[C@@H](O[C@@H]2OC[C@@H](O[C@@H]3OC[C@@H](O[C@@H]4OC[C@@H](O[C@@H]5OC[C@@H](O)[C@H](O)[C@H]5O)[C@H](O)[C@H]4O)[C@H](O)[C@H]3O)[C@H](O)[C@H]2O)[C@H](O)[C@H]1O (stereo partly drawn) [XOS5, xylopentaose]		< 100	1.5	
OC1OC[C@@H](O[C@@H]2OC[C@@H](O[C@@H]3OC[C@@H](O[C@@H]4OC[C@@H](O[C@@H]5OC[C@@H](O[C@@H]6OC[C@@H](O)[C@H](O)[C@H]6O)[C@H](O)[C@H]5O)[C@H](O)[C@H]4O)[C@H](O)[C@H]3O)[C@H](O)[C@H]2O)[C@H](O)[C@H]1O (stereo partly drawn) [XOS6, xylohexaose]		< 100	8.2	
